Assays:
aquaporin 1 = experiment: Aquaporin 1 expression after exposure to aldosterone; conditions: normal rat, 24 hours exposure, low aldosterone dose (1-10 nM)
ENaC-α = ENaC-α expression (real-time PCR, western blot) in rat RMG primary cultures and retinal explants; format: cell-based
Experimental: Rat RMG cells were obtained as described (deKozak, Y., Naud, M. C., Bellot, J., Faure, J. P., and Hicks, D. (1994) Differential tumor necrosis factor expression by resident retinal cells from experimental uveitis-susceptible and -resistant rat strains. J Neuroimmunol 55, 1-9). Briefly, rats at postnatal (PN) day 17 (when RMG cells are mature) were sacrificed and eyes enucleated. Intact eyeballs were maintained in DMEM overnight at room temperature in the dark, and then incubated 45 min with 2 mg/ml trypsin/collagenase I at 37° C. The neural retinas were separated from the lens and vitreous, cut into small fragments and plated in Petri dishes containing DMEM supplemented with 10% FCS, 100 units/ml penicillin, 100 µg/ml streptomycin, and 0.2% amphotericin B. Cultures were maintained at 37° C. in a humidified atmosphere containing 5% CO2. After 5 to 6 days, the cultures were washed extensively with medium so that only a strongly adherent flat cell population remained.
Müller cells were seeded in 6-well tissue culture plates (Becton Dickinson, Le Pont de Claix, France). Rat PN17 RMG cells were maintained in their initial Petri dishes. Sub confluent (80%) cells were incubated in media supplemented with 10% steroid-free (charcoal treated) FCS for 24 hrs. Corticosteroid (Sigma-Aldrich, Saint Quentin Fallavier, France) treatments were then applied respectively for a further 24 hrs: 10 nM aldosterone, 10 nM aldosterone plus 1).IM RU38486 (GR-specific antagonist), 10 nM aldosterone plus 1 µM RU26752 (MR-specific antagonist) or 1 µM dexamethasone. The steroids were previously dissolved in 2% steroid-free FCS media containing 0.1% ethanol. Control cells were treated with 0.1% ethanol in media.
After enucleation, rat retinas were isolated immediately under aseptic conditions and cut into 4 pieces. They were then transferred onto a Cyclopore 0.2).Im polycarbonate membrane (Whatman, Maidstone, England), and flatmounted with the vitreal side up. The support membranes were placed in 6-well tissue culture plates containing 2 ml DMEM supplemented with 10% steroid-free FCS, 1% penicillin-streptomycin and 0.1% amphotericin B. Explants were treated with corticosteroids as described for cultured cells. Similarly, the dose-dependent effect of aldosterone (0.1-100 nM) was analyzed on retinal explants in separate experiments.
Total RNA was isolated from the treated RMG cells and retinal explants using RNeasy Mini Kit (Qiagen, Courtaboeuf, France). First-strand cDNA was synthesized after DNase I (Qiagen) treatment using random primers (Invitrogen) and superscript II reverse transcriptase (Invitrogen). Transcript levels of ENaC-a, Kir4.1 and AQP4 were analyzed by real-time PCR performed in 7500 Real-Time PCR System (Applied Biosystems, Foster City, Calif., USA) with either TaqMan® (Applied Biosystems) or SYBR® Green (Invitrogen, Cergy Pontoise, France) detection. The 18S was used as internal control.
Retinal explants were homogenized in Np40 buffer in the presence of protease inhibitors. The protein concentration was determined by the Bradford method. Equal amounts of protein (12 .ug) were separated on Novex® 4%-12% Tris-Glycine gel (Invitrogen), transferred to nitrocellulose, and the blots were incubated with primary antibodies at 4° C. overnight. The membranes were washed, incubated with horse radish peroxidase conjugated goat anti-rabbit IgG (1:3000, Vector, AbCys, Paris, France) for 1 hr at room temperature, and developed using ECL Plus western blotting detection reagents (GE healthcare, Orsay, France). The j3-actin was used as internal control. The following primary antibodies were used: rabbit anti-alpha ENaC (1:500, Abcam, Cambridge, Mass., USA), rabbit anti-Kir4.1 (1:400, Alomone Labs, Jerusalem, Israel), rabbit anti-AQP4 (1:750, Millipore, St Quentin en Yvelines, France) and rabbit anti-j3-actin (1:1000, Abcam)

## C[C@]12CCC(=O)C=C1CC[C@@H]1[C@@H]2[C@@H](O)C[C@]2(C=O)[C@@H](C(=O)CO)CC[C@@H]12 [aldosterone]
Aquaporin 1
  expression of aquaporin 1: reduces
ENaC-α; 24 hrs treatment, rat RMG primary cultures and retinal explants
  ENaC-α subunit mRNA expression: significant up-regulation
ENaC-α; aldosterone 0.1-100 nM, retinal explants
  dose dependence of ENaC-α transcripts: dose dependent manner
ENaC-α; aldosterone 24 hrs
  expression of sodium channel ENaC-a: 6.5 fold
ENaC-α; western blot, retinal explants
  ENaC-α expression at the protein level: up-regulated
